Laboratory results from patent publication US8735384B2, “Amino heteroaryl compounds as beta-secretase modulators and methods of use” (Amgen Inc., priority 2010, dated 2014).

Key:
BACE1 = BACE1 (Homo sapiens, UniProt P56817); test: In vitro enzymatic BACE FRET assay; type: biochemical; details: beta secretase enzyme 0.2 nM, FRET substrate 50 nM, pH 4.2; read-out: BACE1 FRET assay (IC50 class)
Summary of the method: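 Beta-secretase (0.2 nM) was pre-incubated 1 h with serially diluted inhibitor in 0.05 M acetate pH 4.2, 10% DMSO, 100 uM genapol. Then 50 nM quenched peptide FRET substrate was added for 1 h. The reaction was stopped with Tris to neutral pH and fluorescence read ([…]).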

[1] = test system: Aβ40 in conditioned medium of cells stably expressing Amyloid Precursor Protein (APP); test: In vitro BACE cell-based assay (HEK cell assay), Aβ40 sandwich ELISA; details: Homo sapiens, HEK293, 24 h, inhibition of Aβ40, 24 h incubation, read-out: HEK cell assay (IC50 class)
Summary of the method: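 APP-stably expressing cells (40K/well) grown 24 h, then treated 24 h with 10-point doses from 100 μM or 10 μM top (0.1% DMSO). Secreted Aβ40 quantified by sandwich ELISA (pAb40 capture, biotinylated 6E10 detection, europium time-resolved fluorescence); IC50 from percent inhibition versus concentration.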

Chain of BACE1 (P56817 46-501, species assumed): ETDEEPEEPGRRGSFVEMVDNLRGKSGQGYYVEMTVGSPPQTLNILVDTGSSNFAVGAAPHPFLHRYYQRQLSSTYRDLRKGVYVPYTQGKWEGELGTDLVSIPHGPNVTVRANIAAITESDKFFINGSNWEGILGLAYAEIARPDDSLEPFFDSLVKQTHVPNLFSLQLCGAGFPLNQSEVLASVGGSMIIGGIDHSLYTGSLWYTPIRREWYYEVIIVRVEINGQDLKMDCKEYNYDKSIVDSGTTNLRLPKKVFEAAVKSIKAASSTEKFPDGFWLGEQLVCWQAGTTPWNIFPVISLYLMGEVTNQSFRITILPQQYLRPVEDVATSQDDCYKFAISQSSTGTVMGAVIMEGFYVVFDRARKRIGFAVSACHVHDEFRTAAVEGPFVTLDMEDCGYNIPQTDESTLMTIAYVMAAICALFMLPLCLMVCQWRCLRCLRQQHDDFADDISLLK

IC50 (BACE1)	IC50 [1]	Compound
< 100 nM	501 to 1000 nM	Nc1nc2ccc(-c3ccccc3C(=O)OC3CCCC3)cc2cc1N1CCOCC1 [Example 145, cyclopentyl 2-(2-amino-3-morpholinoquinolin-6-yl)benzoate]
100 to 500 nM	1010 to 5000 nM	Nc1nc2ccc(-c3ccccc3C(=O)N3CCCC3)cc2cc1N1CCOCC1 [Example 146, (2-(2-amino-3-morpholinoquinolin-6-yl)phenyl)(pyrrolidin-1-yl)methanone]
100 to 500 nM	1010 to 5000 nM	Nc1nc2ccc(-c3ccc(Cl)cc3C(=O)N3CCCC3)cc2cc1N1CCOCC1 [Example 147, (2-(2-amino-3-morpholinoquinolin-6-yl)-5-chlorophenyl)(pyrrolidin-1-yl)methanone]
100 to 500 nM	1010 to 5000 nM	Nc1nc2ccc(-c3c(F)cccc3C(=O)N3CCCC3)cc2cc1N1CCOCC1 [Example 148, (2-(2-amino-3-morpholinoquinolin-6-yl)-3-fluorophenyl)(pyrrolidin-1-yl)methanone]
100 to 500 nM	> 5000 nM	Nc1nc2ccc(-c3ccccc3C(=O)C3CCCC3)cc2cc1N1CCOCC1 [Example 149, (2-(2-amino-3-morpholinoquinolin-6-yl)phenyl)(cyclopentyl)methanone]
< 100 nM	100 to 500 nM	Cc1ccc(C(=O)N2CCCC2)c(-c2ccc3nc(N)c(N4CCOCC4)cc3c2)c1 [Example 150, (2-(2-amino-3-morpholinoquinolin-6-yl)-4-methylphenyl)(pyrrolidin-1-yl)methanone]
100 to 500 nM	1010 to 5000 nM	Nc1nc2ccc(-c3ccccc3C(=O)c3ccccc3)cc2cc1N1CCOCC1 [Example 151, (2-(2-amino-3-morpholinoquinolin-6-yl)phenyl)(phenyl)methanone]
< 100 nM	1010 to 5000 nM	Nc1nc2ccc(-c3ccccc3C(=O)C3CCCCC3)cc2cc1N1CCOCC1 [Example 152, (2-(2-amino-3-morpholinoquinolin-6-yl)phenyl)(cyclohexyl)methanone]
100 to 500 nM	> 5000 nM	CC(C)(C)CC(=O)c1ccccc1-c1ccc2nc(N)c(N3CCOCC3)cc2c1 [Example 153, 1-(2-(2-amino-3-morpholinoquinolin-6-yl)phenyl)-3,3-dimethylbutan-1-one]
< 100 nM	501 to 1000 nM	Nc1nc2ccc(-c3cc(Cl)ccc3C(=O)N3CCCC3)cc2cc1N1CCOCC1 [Example 154, (2-(2-amino-3-morpholinoquinolin-6-yl)-4-chlorophenyl)(pyrrolidin-1-yl)methanone]
100 to 500 nM	1010 to 5000 nM	Nc1nc2ccc(-c3c(C(=O)N4CCCC4)cccc3C(F)(F)F)cc2cc1N1CCOCC1 [Example 155, (2-(2-amino-3-morpholinoquinolin-6-yl)-3-(trifluoromethyl)phenyl)(pyrrolidin-1-yl)methanone]
< 100 nM	1010 to 5000 nM	Nc1nc2ccc(-c3ccccc3C(=O)CC3CCCC3)cc2cc1N1CCOCC1 [Example 156, 1-(2-(2-amino-3-morpholinoquinolin-6-yl)phenyl)-2-cyclopentylethanone]
< 100 nM	501 to 1000 nM	Cc1cccc(C(=O)c2ccccn2)c1-c1ccc2nc(N)c(N3CCOCC3)cc2c1 [Example 157, (2-(2-amino-3-morpholinoquinolin-6-yl)-3-methylphenyl)(pyridin-2-yl)methanone]
100 to 500 nM	1010 to 5000 nM	Cc1cccc(C(=O)c2nccs2)c1-c1ccc2nc(N)c(N3CCOCC3)cc2c1 [Example 158, (2-(2-amino-3-morpholinoquinolin-6-yl)-3-methylphenyl)(thiazol-2-yl)methanone]
< 100 nM	501 to 1000 nM	Cc1cccc(C(=O)c2ncccc2Cl)c1-c1ccc2nc(N)c(N3CCOCC3)cc2c1 [Example 159, (2-(2-amino-3-morpholinoquinolin-6-yl)-3-methylphenyl)(3-chloropyridin-2-yl)methanone]
501 to 1000 nM	> 5000 nM	CC(C)(C)C#Cc1ccccc1-c1ccc2nc(N)c(N3CCOCC3)cc2c1 [Example 160, 6-(2-(3,3-dimethylbut-1-ynyl)phenyl)-3-morpholinoquinolin-2-amine]
< 100 nM	501 to 1000 nM	Nc1nc2ccc(-c3c(C#Cc4ccccc4)cccc3C(=O)N3CCCC3)cc2cc1N1CCOCC1 [Example 161, (2-(2-amino-3-morpholinoquinolin-6-yl)-3-(phenylethynyl)phenyl)(pyrrolidin-1-yl)methanone]
< 100 nM	< 100 nM	Nc1nc2ccc(-c3c(CCc4ccccc4)cccc3C(=O)N3CCCC3)cc2cc1N1CCOCC1 [Example 162, (2-(2-amino-3-morpholinoquinolin-6-yl)-3-phenethylphenyl)(pyrrolidin-1-yl)methanone]

IC50 (BACE1)	IC50 [1]	Compound
< 100 nM	< 100 nM	CC(C)(C)CCc1cccc(C(=O)N2CCOCC2)c1-c1ccc2nc(N)c(N3CCOCC3)cc2c1 [Example 163, (2-(2-amino-3-morpholinoquinolin-6-yl)-3-(3,3-dimethylbutyl)phenyl)(morpholino)methanone]
< 100 nM	< 100 nM	CC(C)(C)CCc1cccc(C(=O)N2CCC2)c1-c1ccc2nc(N)c(N3CCOCC3)cc2c1 [Example 164, (2-(2-amino-3-morpholinoquinolin-6-yl)-3-(3,3-dimethylbutyl)phenyl)(azetidin-1-yl)methanone]
< 100 nM	< 100 nM	CC(C)(C)CCc1cccc(C(=O)N2CCCC2)c1-c1ccc2nc(N)c(N3C[C@@H]4C[C@H]3CO4)cc2c1 [Example 165, (2-(2-amino-3-((1S,4S)-2-oxa-5-azabicyclo[2.2.1]heptan-5-yl)quinolin-6-yl)-3-(3,3-dimethylbutyl)phenyl)(pyrrolidin-1-yl)methanone]
< 100 nM	< 100 nM	CC(C)(C)CCc1cccc(C(=O)N2CC[C@H](F)C2)c1-c1ccc2nc(N)c(N3CCOCC3)cc2c1 [Example 166, (S)-(2-(2-amino-3-morpholinoquinolin-6-yl)-3-(3,3-dimethylbutyl)phenyl)(3-fluoropyrrolidin-1-yl)methanone]
< 100 nM	< 100 nM	Nc1nc2ccc(-c3c(C#CC4CCCCC4)cccc3C(=O)N3CCCC3)cc2cc1N1CCOCC1 [Example 167, (2-(2-amino-3-morpholinoquinolin-6-yl)-3-(cyclohexylethynyl)phenyl)(pyrrolidin-1-yl)methanone]
< 100 nM	< 100 nM	Nc1nc2ccc(-c3c(CCC4CCCCC4)cccc3C(=O)N3CCCC3)cc2cc1N1CCOCC1 [Example 168, (2-(2-amino-3-morpholinoquinolin-6-yl)-3-(2-cyclohexylethyl)phenyl)(pyrrolidin-1-yl)methanone]
< 100 nM	> 5000 nM	Cc1cccc(OCc2ccccc2)c1-c1ccc2nc(N)c(N3CCOCC3)cc2c1 [Example 169, 6-(2-(benzyloxy)-6-methylphenyl)-3-morpholinoquinolin-2-amine]
< 100 nM	1010 to 5000 nM	Cc1cccc(OCCOC(C)C)c1-c1ccc2nc(N)c(N3CCOCC3)cc2c1 [Example 170, 6-(2-(2-isopropoxyethoxy)-6-methylphenyl)-3-morpholinoquinolin-2-amine]
< 100 nM	> 5000 nM	Cc1cccc(Oc2ccccc2)c1-c1ccc2nc(N)c(N3CCOCC3)cc2c1 [Example 171, 6-(2-methyl-6-phenoxyphenyl)-3-morpholinoquinolin-2-amine]
< 100 nM	1010 to 5000 nM	Cc1cccc(CCC(C)(C)C)c1-c1ccc2nc(N)c(N3CCOCC3)cc2c1 [Example 172, 6-(2-(3,3-dimethylbutyl)-6-methylphenyl)-3-morpholinoquinolin-2-amine]
< 100 nM	1010 to 5000 nM	Cc1cccc(C(=O)c2cccc(C)c2-c2ccc3nc(N)c(N4CCOCC4)cc3c2)c1 [Example 173, (2-(2-amino-3-morpholinoquinolin-6-yl)-3-methylphenyl)(m-tolyl)methanone]
< 100 nM	1010 to 5000 nM	Cc1cccc(C(=O)c2cccc(Cl)c2)c1-c1ccc2nc(N)c(N3CCOCC3)cc2c1 [Example 174, (2-(2-amino-3-morpholinoquinolin-6-yl)-3-methylphenyl)(3-chlorophenyl)methanone]
< 100 nM	1010 to 5000 nM	COc1ccc(C(=O)c2cccc(C)c2-c2ccc3nc(N)c(N4CCOCC4)cc3c2)cc1 [Example 175, (2-(2-amino-3-morpholinoquinolin-6-yl)-3-methylphenyl)(4-methoxyphenyl)methanone]
< 100 nM	1010 to 5000 nM	Cc1cccc(C(=O)c2ccc(Cl)cc2)c1-c1ccc2nc(N)c(N3CCOCC3)cc2c1 [Example 176, (2-(2-amino-3-morpholinoquinolin-6-yl)-3-methylphenyl)(4-chlorophenyl)methanone]
100 to 500 nM	1010 to 5000 nM	COc1cccc(C(=O)c2cccc(C)c2-c2ccc3nc(N)c(N4CCOCC4)cc3c2)c1 [Example 177, (2-(2-amino-3-morpholinoquinolin-6-yl)-3-methylphenyl)(3-methoxyphenyl)methanone]
< 100 nM	1010 to 5000 nM	Cc1ccc(C(=O)c2cccc(C)c2-c2ccc3nc(N)c(N4CCOCC4)cc3c2)cc1 [Example 178, (2-(2-amino-3-morpholinoquinolin-6-yl)-3-methylphenyl)(p-tolyl)methanone]
100 to 500 nM	1010 to 5000 nM	CCCC(=O)c1cccc(C)c1-c1ccc2nc(N)c(N3CCOCC3)cc2c1 [Example 179, 1-(2-(2-amino-3-morpholinoquinolin-6-yl)-3-methylphenyl)butan-1-one]
